According to ChEMBL document CHEMBL1671865, “Clostridium difficile infections in a Canadian tertiary care hospital before and during a regional epidemic associated with the BI/NAP1/027 strain” (2008):
In brackets after ≈: the same amount, converted by molar mass.

How the values were obtained:
Format in all cases: functional
[1] = system: Clostridioides difficile; assay: Antimicrobial activity against Clostridium difficile harboring ribotype 001 by CLSI agar dilution method
[2] = system: Clostridioides difficile; assay: Antimicrobial activity against Clostridium difficile harboring ribotype 027 by CLSI agar dilution method
[3] = system: Clostridioides difficile; assay: Antimicrobial activity against Clostridium difficile harboring other ribotypes by CLSI agar dilution method

Compound | MIC50 [1] [µg/mL] | MIC90 [1] [µg/mL] | MIC50 [2] [µg/mL] | MIC90 [2] [µg/mL] | MIC50 [3] [µg/mL] | MIC90 [3] [µg/mL] | MIC [1] [µg/mL] | MIC [2] [µg/mL]
CCS(=O)(=O)CCn1c([N+](=O)[O-])cnc1C [TINIDAZOLE] | 0.5 (≈ 2.02 µM) | 0.5 (≈ 2.02 µM) | 1 (≈ 4.04 µM) | 1 (≈ 4.04 µM) | 0.25 (≈ 1.01 µM) | 0.5 (≈ 2.02 µM) |  | 
RAMOPLANIN | 0.25 | 0.25 | 0.12 | 0.25 | 0.25 | 0.25 |  | 
CCC[C@@H]1C[C@@H](C(=O)N[C@@H]([C@H]2O[C@H](SC)[C@H](O)[C@@H](O)[C@H]2O)[C@H](C)Cl)N(C)C1 [CLINDAMYCIN] | > 64 | > 64 | 4 (≈ 9.41 µM) | 8 (≈ 18.8 µM) | 4 (≈ 9.41 µM) | 8 (≈ 18.8 µM) | > 64 | 
CN[C@H](CC(C)C)C(=O)N[C@H]1C(=O)N[C@@H](CC(N)=O)C(=O)N[C@H]2C(=O)N[C@H]3C(=O)N[C@H](C(=O)N[C@H](C(=O)O)c4cc(O)cc(O)c4-c4cc3ccc4O)[C@H](O)c3ccc(c(Cl)c3)Oc3cc2cc(c3O[C@@H]2O[C@H](CO)[C@@H](O)[C@H](O)[C@H]2O[C@H]2C[C@](C)(N)[C@H](O)[C@H](C)O2)Oc2ccc(cc2Cl)[C@H]1O [VANCOMYCIN] | 1 (≈ 0.69 µM) | 1 (≈ 0.69 µM) | 0.5 (≈ 0.345 µM) | 2 (≈ 1.38 µM) | 1 (≈ 0.69 µM) | 1 (≈ 0.69 µM) |  | 0.5 (≈ 0.345 µM)
COc1c(N2CCNC(C)C2)c(F)cc2c(=O)c(C(=O)O)cn(C3CC3)c12 (stereo not drawn) [GATIFLOXACIN] | 32 (≈ 85.2 µM) | 32 (≈ 85.2 µM) | > 32 | > 32 | 2 (≈ 5.33 µM) | > 32 |  | 
Cc1ncc([N+](=O)[O-])n1CCO [METRONIDAZOLE] | 0.5 (≈ 2.92 µM) | 0.5 (≈ 2.92 µM) | 1 (≈ 5.84 µM) | 1 (≈ 5.84 µM) | 0.25 (≈ 1.46 µM) | 0.5 (≈ 2.92 µM) |  | 
